Assay results taken from the supplement of paper PMC9663587.

Columns and labels:
Assay in all cases: area over the GR curve, 72 h; higher = more effect;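 note: Dye Drop or Deep Dye Drop imaging of viable cells in 384-well plates (Hoechst nuclei, LIVE/DEAD dye), nine half-log doses, GR normalized to DMSO controls and time-zero plates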
[1] = tested on: HCC202
[2] = tested on: MGH312
[3] = tested on: ZR7530
[4] = tested on: MDAMB415
[5] = tested on: HCC1187
[6] = tested on: CAL51
[7] = tested on: SUM52PE
[8] = tested on: MDAMB361
[9] = tested on: CAMA1
[10] = tested on: UACC893
[11] = tested on: MDAMB231
[12] = tested on: ZR751
[13] = tested on: MCF12A
[14] = tested on: UACC812
[15] = tested on: PDX1258

| Structure (SMILES) | area over the GR curve [1] | area over the GR curve [2] | area over the GR curve [3] | area over the GR curve [4] | area over the GR curve [5] | area over the GR curve [6] | area over the GR curve [7] | area over the GR curve [8] | area over the GR curve [9] | area over the GR curve [10] | area over the GR curve [11] | area over the GR curve [12] | area over the GR curve [13] | area over the GR curve [14] | area over the GR curve [15] |
| --- | --- | --- | --- | --- | --- | --- | --- | --- | --- | --- | --- | --- | --- | --- | --- |
| CN(C)C/C=C/C(=O)Nc1ccc(C(=O)Nc2cccc(Nc3cc(-c4c[nH]c5ccccc45)ncn3)c2)cc1 [THZ-P1-2] (max 10 µM) | 0.0733 GR | 0.127 GR | 0.474 GR | 0.683 GR | 0.331 GR | 0.0155 GR | 0.129 GR | 0.789 GR | 0.309 GR | 0.573 GR | 0.163 GR | 0.0386 GR | 0.0465 GR | 0.0711 GR | 0.572 GR |
| Cc1nc(-c2cn3c(n2)-c2ccc(-c4cnn(C(C)(C)C(N)=O)c4)cc2OCC3)n(C(C)C)n1 [Taselisib/GDC0032] (max 10 µM) | 0.791 GR | 0.886 GR | 0.798 GR | 0.516 GR | 0.497 GR | 0.546 GR | 0.647 GR | 1.41 GR | 0.245 GR | 1.43 GR | 0.254 GR | 0.393 GR | 0.263 GR | 0.693 GR | 0.278 GR |
| O=C1NC(=O)[C@@H](c2cn3c4c(cccc24)CCC3)[C@@H]1c1c[nH]c2ccccc12 [Tivantinib/ARQ197] (max 10 µM) | 0.277 GR | 0.396 GR | 0.457 GR | 0.213 GR | 0.891 GR | 0.359 GR | 0.411 GR | 0.514 GR | 0.526 GR | 0.405 GR | 0.323 GR | 0.255 GR | 0.374 GR | 0.667 GR | 0.373 GR |
| Nc1ccc(-c2ccc3ncc4ccc(=O)n(-c5cccc(C(F)(F)F)c5)c4c3c2)cn1 [Torin2] (max 1 µM) | 0.473 GR | 0.816 GR | 0.346 GR | 0.627 GR | 0.588 GR | 0.456 GR | 0.533 GR | 0.869 GR | 0.507 GR | 0.698 GR | 0.386 GR | 0.438 GR | 0.327 GR | 0.9 GR | 0.362 GR |
| CC[C@@H]1C(=O)N(C)c2cnc(Nc3ccc(C(=O)N[C@H]4CC[C@H](N5CCN(CC6CC6)CC5)CC4)cc3OC)nc2N1C(C)C [Volasertib/BI6727] (max 1 µM) | 0.38 GR | 0.801 GR | 0.753 GR | 0.546 GR | 0.883 GR | 0.679 GR | 0.488 GR | 0.793 GR | 0.674 GR | 0.813 GR | 0.584 GR | 0.263 GR | 0.321 GR | 0.734 GR | 0.549 GR |
| O=C(CCCCCCC(=O)Nc1ccccc1)NO [Vorinostat] (max 10 µM) | 0.202 GR | 0.37 GR | 0.276 GR | 0.172 GR | 0.303 GR | 0.186 GR | 0.0969 GR | 0.457 GR | 0.383 GR | 0.161 GR | 0.282 GR | 0.0343 GR | 0.0874 GR | 0.393 GR | 0.211 GR |
| C=CC(=O)Nc1ccc(C(=O)Nc2[nH]nc3c2CN(C(=O)N[C@H](CN(C)C)c2ccccc2)C3(C)C)cc1 [YKL-5-124] (max 10 µM) | 0.706 GR | 0.923 GR | 0.831 GR | 0.664 GR | 0.822 GR | 0.655 GR | 0.564 GR | 1.14 GR | 0.968 GR | 0.765 GR | 0.878 GR | 0.717 GR | 0.803 GR | 1.02 GR | 0.993 GR |
| CN1CCN(C(=O)c2ccc3cc(CCNc4ncnc5ccc(C#N)cc45)ccc3c2)CC1 [senexin b] (max 10 µM) | 0.182 GR | 0.418 GR | 0.274 GR | 0.173 GR | -0.306 GR | 0.119 GR | 0.141 GR | 0.323 GR | 0.351 GR | 0.185 GR | 0.0788 GR | 0.05 GR | 0.11 GR | 0.421 GR | 0.125 GR |
